Measurements taken from ChEMBL document CHEMBL4152282, “Synthesis and photodynamic activities of integrin-targeting silicon(IV) phthalocyanine-cRGD conjugates” (Eur J Med Chem, 2018).

Tests used:
[1] = Aggregation behavior of compound in RPMI 1640 medium with 0.05% cremophor EL at 3 uM by UV-vis absorption spectra analysis; assay type: physicochemical
[2] = Aggregation behavior of compound in DMF at 1 to 6 uM by UV-vis absorption spectra analysis; assay type: physicochemical
[3] = Drug uptake in tumor of KM mouse xenografted with […] cells expressing integrin at 0.5 nmol/g, iv measured after 1 to 24 hrs by fluorescence imaging method; assay type: ADME, organism-based, Neoplasm; conditions: in vivo
HT-29 [4] = experiment: Induction of reactive oxygen species formation in human HT-29 cells with high expression of alphaVbeta3 integrin preincubated for 2 hrs followed by incubation with DCF-DA dye for 30 mins and measured after irradiation by fluorescence assay; assay type: functional, cell-based
H22 [5] = experiment: Dark toxicity against […] cells expressing integrin xenografted in KM mouse at 0.5 nmol/g, iv administered 12 hrs measured every other day for 14 days; assay type: organism-based; conditions: in vivo, 336 h
HT-29 [6] = experiment: Induction of reactive oxygen species formation in human HT-29 cells with high expression of alphaVbeta3 integrin preincubated for 2 hrs followed by DCF-DA dye addition and measured after 30 mins in absence of light by fluorescence assay; assay type: cell-based; conditions: ht-29, 0.5 h
[7] = Selectivity ratio of IC50 for human MCF7 cells with low expression of alphaVbeta3 integrin to IC50 for human HT-29 cells with high expression of alphaVbeta3 integrin preincubated for 24 hrs followed by red light irradiation and measured after overnight incubation by MTT assay; assay type: functional
[8] = Ratio of drug level in tumor of KM mouse xenografted with […] cells expressing integrin to liver of KM mouse xenografted with […] cells at 0.5 nmol/g, iv measured after 24 hrs; assay type: ADME, organism-based, Tumor/tissue; conditions: in vivo
[9] = Drug uptake in lysosome of human HT-29 cells at 1 uM incubated for 0.5 hrs by Lyso Tracker red dye-based confocal laser scanning microscopic method; assay type: ADME, subcellular; conditions: ht-29, 0.5 h
HT-29 [10] = experiment: Photocytotoxicity against human HT-29 cells with high expression of alphaVbeta3 integrin assessed as decrease in cell viability preincubated for 2 hrs followed by red light irradiation and measured after overnight incubation by MTT assay; assay type: functional, cell-based; conditions: HT-29, light or radiation study
[11] = Photostability in DMF assessed as release of singlet oxygen at 4 uM preincubated with DPBF in dark followed by irradiation with red light by DPBF decay assay; assay type: functional
[12] = Aggregation behavior of compound in water at 3 uM by UV-vis absorption spectra analysis; assay type: physicochemical; conditions: buffer
HaCaT [13] = experiment: Photocytotoxicity against human HaCaT cells assessed as decrease in cell viability preincubated for 24 hrs followed by red light irradiation and measured after overnight incubation by MTT assay; assay type: cell-based; conditions: light or radiation study
[14] = Dark toxicity against human MCF7 cells with low expression of alphaVbeta3 integrin assessed as decrease in cell viability incubated for 2 to 24 hrs by MTT assay; assay type: cell-based
HT-29 [15] = experiment: Photocytotoxicity against human HT-29 cells with high expression of alphaVbeta3 integrin assessed as decrease in cell viability preincubated for 24 hrs followed by red light irradiation and measured after overnight incubation by MTT assay; assay type: functional, cell-based; conditions: HT-29, light or radiation study
MCF7 [16] = experiment: Induction of reactive oxygen species formation in human MCF7 cells with […] expression of alphaVbeta3 integrin preincubated for 2 hrs followed by incubation with DCF-DA dye for 30 mins and measured after irradiation by fluorescence assay; assay type: functional, cell-based
MCF7 [17] = experiment: Induction of reactive oxygen species formation in human MCF7 cells with low expression of alphaVbeta3 integrin preincubated for 2 hrs followed by DCF-DA dye addition and measured after 30 mins in absence of light by fluorescence assay; assay type: cell-based; conditions: mcf7, 0.5 h
Mus musculus [18] = experiment: Drug uptake in KM mouse xenografted with […] cells at 0.5 nmol/g, iv measured after 24 hrs by fluorescence imaging method; assay type: ADME, organism-based; conditions: in vivo
[19] = Selectivity ratio of IC50 for human MCF7 cells with low expression of alphaVbeta3 integrin to IC50 for human HT-29 cells with high expression of alphaVbeta3 integrin preincubated for 2 hrs followed by red light irradiation and measured after overnight incubation by MTT assay; assay type: functional
MCF7 [20] = experiment: Photocytotoxicity against human MCF7 cells with low expression of alphaVbeta3 integrin assessed as decrease in cell viability preincubated for 24 hrs followed by red light irradiation and measured after overnight incubation by MTT assay; assay type: functional, cell-based; conditions: MCF7, light or radiation study
[21] = Dark toxicity against human HT-29 cells with high expression of alphaVbeta3 integrin assessed as decrease in cell viability incubated for 2 to 24 hrs by MTT assay; assay type: cell-based
H22 [22] = experiment: Antitumor activity against […] cells expressing integrin xenografted in KM mouse assessed as tumor growth inhibition at 0.5 nmol/g, iv administered 12 hrs followed by irradiation with laser for 6 mins and measured after 14 days; assay type: functional
MCF7 [23] = experiment: Photocytotoxicity against human MCF7 cells with low expression of alphaVbeta3 integrin assessed as decrease in cell viability preincubated for 2 hrs followed by red light irradiation and measured after overnight incubation by MTT assay; assay type: functional, cell-based; conditions: MCF7, light or radiation study
HaCaT [24] = experiment: Photocytotoxicity against human HaCaT cells assessed as decrease in cell viability preincubated for 2 hrs followed by red light irradiation and measured after overnight incubation by MTT assay; assay type: cell-based; conditions: light or radiation study
[25] = Drug uptake in human MCF7 cells at 1 uM after 24 hrs by confocal laser scanning microscopic method; assay type: ADME, cell-based; conditions: mcf7, 24 h
[26] = Selectivity index, ratio of IC50 for photocytotoxicity against human HaCaT cells to IC50 for photocytotoxicity against human HT-29 cells with high expression of alphaVbeta3 integrin; assay type: toxicity, cell-based; conditions: read-out: Ratio IC50
[27] = Ratio of drug level in tumor of KM mouse xenografted with […] cells expressing integrin to kidney of KM mouse xenografted with […] cells at 0.5 nmol/g, iv measured after 24 hrs; assay type: ADME, organism-based, Tumor/tissue; conditions: in vivo
Mus musculus [28] = experiment: Drug uptake in KM mouse xenografted with […] cells at 0.5 nmol/g, iv measured up to 24 hrs by fluorescence imaging method; assay type: ADME, organism-based; conditions: in vivo

For `N=C(N)NCCC[C@@H]1NC(=O)[C@H](Cc2cn(CCOCCOCCO[Si]3(OCCOCCOCCn4cc(C[C@@H]5NC(=O)[C@@H](Cc6ccccc6)NC(=O)[C@H](CC(=O)O)NC(=O)CNC(=O)[C@H](CCCNC(=N)N)NC5=O)nn4)n4c5c6ccccc6c4/N=C4N=C(/N=c6/c7ccccc7/c(n63)=N/C3=NC(=N\5)/c5ccccc53)c3ccccc3\4)nn2)NC(=O)[C@@H](Cc2ccccc2)NC(=O)[C@H](CC(=O)O)NC(=O)CNC1=O` (stereo partly drawn), the Activity [1] was “Not Active”, the Activity [2] was “Not Active” and the Drug uptake [3] was “Active”. For the same compound, the Activity (HT-29 [4]) was “Dose-dependent effect”, the Activity (H22 [5]) was “Non-Toxic” and the Activity (HT-29 [6]) was “Non-Toxic”. For the same compound, the “Ratio IC50” value [7] was 2.87, the Ratio [8] was 2.1 and the Drug uptake [9] was “Active”. The IC50 (HT-29 [10]) was 30 nM, the Stability [11] was “Unstable” and the Activity [12] was “Not Active”. The IC50 (HaCaT [13]) was 56 nM, the Activity [14] was “Non-Toxic” and the IC50 (HT-29 [15]) was 23 nM. For the same compound, the Activity (MCF7 [16]) was “Dose-dependent effect”, the Activity (MCF7 [17]) was “Non-Toxic” and the Drug uptake (Mus musculus [18]) was “Not Active”. For the same compound, the “Ratio IC50” value [19] was 3.33, the IC50 (MCF7 [20]) was 66 nM and the Activity [21] was “Non-Toxic”. The TGI (H22 [22]) was 75%, the IC50 (MCF7 [23]) was 100 nM and the IC50 (HaCaT [24]) was 60 nM. The Drug uptake [25] was “Not Active”, the selectivity ratio [26] was 2 and the Ratio [27] was 2. For the same compound, the Drug uptake (Mus musculus [28]) was “Active”.
